According to patent US12514865B2, “Biomaterial-based antigen free vaccine and the use thereof” (President and Fellows of Harvard College, priority 2019, dated 2026):

Assays:
[1] = tested on: 4T1 cells; assay: In vitro immunogenic cell death assay; format: cell-based; conditions: 24 h
Procedure: 4T1 cells were incubated with different concentrations of Dox at 37° C. for 24 h. Cells without drug treatment were used as controls. Cells were washed with PBS for three times, collected, and stained with FITC-conjugated anti-CD47, Alex Fluor 647-conjugated anti-calreticulin, and fixable viability dye efluor780 for 20 min prior to FACS analyses.

[2] = Release of Dox-iRGD or Dox from pore-forming alginate gels; format: physicochemical; conditions: in vitro, DMEM 37 °C
[3] = tested on: 4T1 tumors; assay: Tumor penetration study of Dox-iRGD; format: in vivo, Balb/c mice; conditions: released from peritumorally injected gels with GM-CSF, confocal imaging
Procedure: 4T1 cells (0.6 million) in HBSS buffer were subcutaneously injected into the right flank of Balb/c mice. After 5 days, pore-forming alginate gels loaded with GM-CSF (3 μg)+Dox-iRGD (50 μg in Dox-equivalent) or GM-CSF+Dox-iRDG or GM-CSF+Dox were injected next to the tumors. After 48 h, gels and tumors were harvested and frozen with O.C.T. compound, and sectioned with a thickness of 8 μm. To determine the tumor penetration of drugs, tissue sections were stained with DAPI for 10 min and imaged under a confocal microscope.

[4] = In vitro encapsulation and release of biomolecules from the cryogel vaccine; format: physicochemical
Procedure: To determine the incorporation efficiency and release kinetics of Cpg-odn, GM-CSF and antigen from cryogel vaccines, gels were incubated in lml of sterile PBS at 37° C. with shaking. Media was replaced periodically. Micro-BCA (Pierce Biotechnology) was used to quantify total protein content. GM-CSF and Cpg-odn released in the supernatant were detected by ELISA (Invitrogen) and OliGreen assay (Invitrogen), respectively. The amount of antigen was determined by subtracting total protein content from the amount of GM-CSF quantified by ELISA.

Row | Molecule | expression of CD47 [1] | cell-surface calreticulin ([1]; 0-100 nM) | released from pore-forming alginate gel within 6 h [2] | released from pore-forming alginate gel within 24 h [2] | tumor penetration / accumulation in tumor tissues [3] | released over the first 5 days in vitro ([4]; from cryogel) | encapsulation efficiency ([4]; in MA-PEG/MA-alginate vaccine cryogel) | burst release of the loaded amount ([4]; in vitro, from cryogel)
1 | COc1cccc2c1C(=O)c1c(O)c3c(c(O)c1C2=O)C[C@@](O)(C(=O)CO)C[C@@H]3O[C@H]1C[C@H](N)[C@H](O)[C@H](C)O1 [Dox, doxorubicin] | increased expression of the anti-phagocytic marker CD47 | upregulated cell-surface calreticulin | ~30% | more than 60% | negligible accumulation | – | – | –
2 | GM-CSF: cytokine granulocyte-macrophage colony-stimulating factor (PeproTech) | – | – | – | – | – | 85% | 87% | about 8%
